Blank lines part the entries; values can stand above or below the compound they belong to. *1 amine or outer side, *2 acyl side, *3 side chain or, on linkers, in order; H or OH if unused. Where a SMILES comes first, the peptide text is derived from it. Bridges are numbered along the chain shown (N, C = ends). Roman numbers before positions name the chains, in order. [ ]: non-standard residue; d: D form. The star is where a group is joined. hNle(7-SH) = O=C([C@H](CCCCCS[*:3])N[*:1])[*:2]; X1 = CN(C)C(=O)c1cc(S*)ccc1[N+](=O)[O-]; Gly((CH2)5SH) = N[C@@H](CCCCCS)C(=O)O; Pip = O=C(O)[C@@H]1CCCCN1; dPip = O=C(O)[C@H]1CCCCN1
Key:
mouse HDAC6 = biological target: T1, mouse HDAC6 (Mus musculus, UniProt Q9Z2V5); assay: In vitro HDAC inhibition activity, [3H]-acetylated histone substrate, HDAC6; assay type: biochemical
T1 construct: HA; made in house; host or cells: 293T cells (transient transfection, anti-HA immunoprecipitation, HA peptide elution)
T1 sequence (Q9Z2V5 1-1149): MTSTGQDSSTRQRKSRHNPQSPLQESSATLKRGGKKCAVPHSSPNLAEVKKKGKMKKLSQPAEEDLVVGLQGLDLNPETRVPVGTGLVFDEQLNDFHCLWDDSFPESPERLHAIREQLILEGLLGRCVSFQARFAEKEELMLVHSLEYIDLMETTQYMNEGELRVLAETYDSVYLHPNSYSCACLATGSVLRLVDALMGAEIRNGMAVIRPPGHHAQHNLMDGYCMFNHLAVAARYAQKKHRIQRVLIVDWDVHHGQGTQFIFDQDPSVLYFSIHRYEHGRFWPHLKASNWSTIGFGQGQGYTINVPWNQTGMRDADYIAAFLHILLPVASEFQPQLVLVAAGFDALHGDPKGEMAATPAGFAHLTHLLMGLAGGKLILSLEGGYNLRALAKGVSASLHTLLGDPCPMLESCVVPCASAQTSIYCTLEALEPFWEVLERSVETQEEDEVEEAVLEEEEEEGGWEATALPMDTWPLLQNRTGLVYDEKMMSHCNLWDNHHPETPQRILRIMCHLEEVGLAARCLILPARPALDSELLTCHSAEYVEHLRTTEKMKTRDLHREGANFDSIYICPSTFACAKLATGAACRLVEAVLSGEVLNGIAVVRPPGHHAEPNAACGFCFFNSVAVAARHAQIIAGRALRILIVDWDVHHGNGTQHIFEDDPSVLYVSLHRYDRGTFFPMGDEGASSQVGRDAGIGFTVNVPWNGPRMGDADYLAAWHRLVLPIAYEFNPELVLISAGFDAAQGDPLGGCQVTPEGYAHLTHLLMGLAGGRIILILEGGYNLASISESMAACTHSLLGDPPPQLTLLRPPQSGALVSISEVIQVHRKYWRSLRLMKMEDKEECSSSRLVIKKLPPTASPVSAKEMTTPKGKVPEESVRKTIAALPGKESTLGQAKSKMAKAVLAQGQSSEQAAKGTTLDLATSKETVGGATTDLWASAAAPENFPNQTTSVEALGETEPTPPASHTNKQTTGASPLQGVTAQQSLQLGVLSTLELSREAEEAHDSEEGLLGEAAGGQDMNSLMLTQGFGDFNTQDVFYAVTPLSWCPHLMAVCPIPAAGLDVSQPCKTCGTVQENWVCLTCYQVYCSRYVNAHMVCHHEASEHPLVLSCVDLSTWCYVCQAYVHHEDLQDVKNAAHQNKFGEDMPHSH
Protocol: (§1) To measure HDAC inhibition activity, an HDAC solution was prepared as described below. 1×10^7 of 293T cells were plated on to a 100-mm dish and, after 24 hours, transfected with vectors (1 μg) expressing human HDAC1 and HDAC4 or mouse HDAC6, using LipofectAmine 2000 reagent (Life Technologies, Inc. Gaithersburg, Md.). […] The vectors were introduced for five hours in OPTI-MEM. The medium was then replaced with Dulbecco's modified Eagle's medium (DMEM), and incubated for 19 hours. The cells were washed with PBS, suspended in lysis buffer (50 mM Tris-HCl (pH7.5), 120 mM NaCl, 5 mM EDTA, and 0.5% Nonidet P-40), and sonicated. The supernatant was collected by centrifugation and nonspecific protein was removed using Protein A/G plus agarose beads (Santa Cruz Biotechnologies, Inc.). Anti-FLAG M2 antibodies (Sigma-Aldrich, Inc.) were added to the supernatant of cells expressing HDAC1 or HDAC4. Anti-HA antibodies (clone 3F10, Roche Molecular Biochemicals) were added to the supernatant of cells expressing HDAC6. Reaction in the respective mixtures was carried out at 4° C. for one hour. The resulting reaction mixtures were independently mixed with agarose beads and further reacted at 4° C. for one hour. The agarose beads were washed three times with lysis buffer and then washed once with HD buffer (20 mM Tris-HCl (pH8.0), 150 mM NaCl, 10% glycerol, and a complete protease inhibitor cocktail (Boehringer Mannheim, Germany)). […] The HDAC reaction solution was used for determining HDAC inhibition activity as shown below.
(§2) In vitro HDAC inhibition activity was evaluated as follows: A test compound was dissolved in DMSO and adjusted to 10 mM. This was used as an inhibitor stock solution. […] These reactions were stopped by adding 10 μl HCl. The [^3H] acetic acid excised by the enzyme reaction was extracted with ethyl acetate and subjected to radioactive dose measurement. As a negative control, the same procedure was carried out in which no inhibitor was added to the reaction system. The inhibition activity was expressed as a 50% inhibition concentration (“IC50 (nM)”) of the HDAC activity in the negative control (Tables 1 to 4).

human HDAC1 = biological target: T2, human HDAC1 (Homo sapiens, UniProt Q13547); assay: In vitro HDAC inhibition activity, [3H]-acetylated histone substrate, HDAC1; assay type: biochemical
T2 construct: FLAG; made in house; host or cells: 293T cells (transient transfection, anti-FLAG immunoprecipitation, FLAG peptide elution)
Protocol: as §1, §2

[1] = system: human wild-type p21 promoter; assay: p21 promoter-inducing activity (luciferase) in MFLL-9 cells; assay type: cell-based
Protocol: The HDAC inhibition activity in vivo was measured using p21 promoter-inducing activity as an index, as shown below. The MFLL-9 cells employed for the experiments stably maintained fusion genes of human wild-type p21 promoter and luciferase (Dr. B. Vogelstaein). Using phenol red-free DMEM medium comprising 10% FBS, cultivation was carried out in a steam-saturated incubator at 37° C. with 5% carbon dioxide. The MFLL-9 cells were plated at a density of 85,000 cells/well on a 96-well microtiter plate, each in 99 μl of the above-mentioned medium. These were then cultivated for six hours. One μl of test compound solution was added to each well, which was then cultured for another 18 hours.
The intensity of luminescence caused by the product of the enzyme reaction for intracellular luciferase expression was measured using Luc Lite (Packard BioScience Company). A group in which test compounds were not added was used as a negative control group. The values measured for this group were used as a standard. The activities for each concentration of added test compound were expressed relative to the above-mentioned standard value, 1.

human HDAC4 = biological target: T3, human HDAC4 (Homo sapiens, UniProt P56524); assay: In vitro HDAC inhibition activity, [3H]-acetylated histone substrate, HDAC4; assay type: biochemical
T3 construct: FLAG; made in house; host or cells: 293T cells (transient transfection, anti-FLAG immunoprecipitation, FLAG peptide elution)
Protocol: as §1, §2

[2] = Table 3, hybrid with DTT (/DTT)
[3] = Table 1, X = H (coexisting with DTT)
[4] = Table 1, X = H (coexisting with DTT), 50% of maximum active value for TSA

T2 sequence (Q13547 whole entry): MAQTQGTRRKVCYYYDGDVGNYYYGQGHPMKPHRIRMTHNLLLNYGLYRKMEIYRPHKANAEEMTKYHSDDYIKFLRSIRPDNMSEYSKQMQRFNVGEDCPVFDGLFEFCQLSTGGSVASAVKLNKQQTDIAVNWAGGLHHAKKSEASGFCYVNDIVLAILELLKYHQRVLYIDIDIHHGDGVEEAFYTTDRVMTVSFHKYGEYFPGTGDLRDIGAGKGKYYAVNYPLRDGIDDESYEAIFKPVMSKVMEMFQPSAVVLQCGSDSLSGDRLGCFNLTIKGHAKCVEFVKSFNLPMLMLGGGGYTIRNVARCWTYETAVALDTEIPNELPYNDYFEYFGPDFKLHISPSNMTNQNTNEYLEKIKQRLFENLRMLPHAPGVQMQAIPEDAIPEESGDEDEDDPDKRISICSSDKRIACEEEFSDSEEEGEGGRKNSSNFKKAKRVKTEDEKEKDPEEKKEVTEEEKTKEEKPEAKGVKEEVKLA
T3 sequence (O15379 whole entry partner): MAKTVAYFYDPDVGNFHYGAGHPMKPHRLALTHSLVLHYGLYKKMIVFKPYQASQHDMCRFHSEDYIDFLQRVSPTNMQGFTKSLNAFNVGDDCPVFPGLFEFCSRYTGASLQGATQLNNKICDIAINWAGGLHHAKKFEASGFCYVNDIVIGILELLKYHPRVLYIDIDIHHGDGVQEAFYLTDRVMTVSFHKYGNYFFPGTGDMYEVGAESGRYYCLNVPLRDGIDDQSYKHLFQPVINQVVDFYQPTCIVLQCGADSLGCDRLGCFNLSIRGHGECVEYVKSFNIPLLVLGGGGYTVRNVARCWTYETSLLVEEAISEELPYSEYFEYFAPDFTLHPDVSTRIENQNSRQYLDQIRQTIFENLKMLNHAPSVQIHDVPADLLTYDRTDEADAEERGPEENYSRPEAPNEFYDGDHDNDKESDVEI
T3 sequence (P56524 whole entry): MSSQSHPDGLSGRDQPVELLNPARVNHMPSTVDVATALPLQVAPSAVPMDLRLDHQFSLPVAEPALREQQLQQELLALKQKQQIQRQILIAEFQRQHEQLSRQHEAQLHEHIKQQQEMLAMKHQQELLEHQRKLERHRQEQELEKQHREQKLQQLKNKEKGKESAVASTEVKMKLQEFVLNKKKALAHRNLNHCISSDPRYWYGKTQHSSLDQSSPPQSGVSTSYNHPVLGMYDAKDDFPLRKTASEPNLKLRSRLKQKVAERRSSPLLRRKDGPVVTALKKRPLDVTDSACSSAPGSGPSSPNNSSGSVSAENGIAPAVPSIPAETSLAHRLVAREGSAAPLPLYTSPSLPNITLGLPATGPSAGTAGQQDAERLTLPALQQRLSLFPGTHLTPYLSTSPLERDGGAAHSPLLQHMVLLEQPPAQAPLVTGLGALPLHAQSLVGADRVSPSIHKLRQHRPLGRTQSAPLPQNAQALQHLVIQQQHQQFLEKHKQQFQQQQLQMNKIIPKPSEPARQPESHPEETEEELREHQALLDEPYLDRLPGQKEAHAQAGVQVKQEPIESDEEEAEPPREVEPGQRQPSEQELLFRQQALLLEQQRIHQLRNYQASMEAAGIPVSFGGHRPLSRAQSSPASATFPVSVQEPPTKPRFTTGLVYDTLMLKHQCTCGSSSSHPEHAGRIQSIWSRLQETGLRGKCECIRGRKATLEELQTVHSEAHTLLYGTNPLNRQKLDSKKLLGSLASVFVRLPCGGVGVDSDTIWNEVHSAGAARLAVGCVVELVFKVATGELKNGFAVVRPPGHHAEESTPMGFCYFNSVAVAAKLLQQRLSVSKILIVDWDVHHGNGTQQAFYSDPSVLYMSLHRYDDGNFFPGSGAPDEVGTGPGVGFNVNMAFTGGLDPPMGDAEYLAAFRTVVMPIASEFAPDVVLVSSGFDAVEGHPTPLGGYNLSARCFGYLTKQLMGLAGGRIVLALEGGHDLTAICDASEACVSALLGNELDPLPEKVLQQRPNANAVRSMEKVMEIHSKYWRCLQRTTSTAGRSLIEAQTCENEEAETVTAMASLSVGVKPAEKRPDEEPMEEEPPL

- IC50 (mouse HDAC6; [2]): 4730 nM
- IC50 (mouse HDAC6; Table 3, hybrid, without DTT): 6080 nM
- IC50 (human HDAC1; [2]): 1.15 nM
- IC50 (human HDAC1; Table 3, hybrid, without DTT): 21.5 nM
- EC50 [1, 2]: 748 nM
- EC50 ([1]; Table 3, hybrid, without DTT): 1800 nM
- IC50 (human HDAC4; [2]): 1.53 nM
- IC50 (human HDAC4; Table 3, hybrid, without DTT): 18.9 nM
Compound: CC[C@H](C)[C@@H]1NC(=O)[C@@H](Cc2ccc(OC)cc2)NC(=O)[C@H](CCCCCSSc2ccc([N+](=O)[O-])c(C(=O)N(C)C)c2)NC(=O)[C@H]2CCCN2C1=O [SCOP 403, cyclo(-L-Am7(SEll)-D-Tyr(Me)-L-Ile-D-Pro-)] (cyclo([hNle(7-SH)](X1)[dY](Me)I[dP]))

- IC50 (mouse HDAC6; [3]): 2470 nM
- IC50 (human HDAC1; [3]): 38.1 nM
- EC50 [1, 4]: 31400 nM
- IC50 (human HDAC4; [3]): 99.2 nM
Compound: CC[C@H](C)[C@@H]1NC(=O)[C@@H](Cc2ccc(OC)cc2)NC(=O)[C@H](CCCCCCCS)NC(=O)[C@H]2CCCN2C1=O [SCOP 154]

- IC50 (mouse HDAC6; Table 2, homodimer): > 500000 nM
- IC50 (human HDAC1; Table 2, homodimer): 763 nM
- EC50 ([1]; Table 2, homodimer): 7730 nM
- IC50 (human HDAC4; Table 2, homodimer): 222 nM
Compound: CC[C@H](C)[C@@H]1NC(=O)[C@@H](Cc2ccc(OC)cc2)NC(=O)[C@H](CCCCCSSCCCCC[C@@H]2NC(=O)[C@@H]3CCCN3C(=O)[C@H]([C@@H](C)CC)NC(=O)[C@@H](Cc3ccc(OC)cc3)NC2=O)NC(=O)[C@@H]2CCCN2C1=O [SCOP 296, cyclo(-L-Am7(-)-D-Tyr(Me)-L-Ile-L-Pro-)] (I: cyclo([hNle(7-SH)][dY](Me)IP) / II: cyclo([hNle(7-SH)][dY](Me)IP); disulfide I:1-II:1)

- IC50 (mouse HDAC6; [3]): 8050 nM
- IC50 (human HDAC1; [3]): 9.13 nM
- EC50 [1, 4]: 9850 nM
- IC50 (human HDAC4; [3]): 91 nM
Compound: CC[C@H](C)[C@@H]1NC(=O)[C@@H](Cc2ccc(OC)cc2)NC(=O)[C@H](CCCCCCS)NC(=O)[C@H]2CCCN2C1=O [SCOP 153]

- IC50 (mouse HDAC6; Table 2, homodimer): 255000 nM
- IC50 (human HDAC1; Table 2, homodimer): 61.1 nM
- EC50 ([1]; Table 2, homodimer): 7370 nM
- IC50 (human HDAC4; Table 2, homodimer): 36.2 nM
Compound: CC[C@H](C)[C@@H]1NC(=O)[C@@H](Cc2ccc(OC)cc2)NC(=O)[C@H](CCCCCSSCCCCC[C@@H]2NC(=O)[C@H]3CCCCN3C(=O)[C@H]([C@@H](C)CC)NC(=O)[C@@H](Cc3ccc(OC)cc3)NC2=O)NC(=O)[C@H]2CCCCN2C1=O [SCOP 300, cyclo(-L-Am7(-)-D-Tyr(Me)-L-Ile-D-Pip-] (I: cyclo([hNle(7-SH)][dY](Me)I[dPip]) / II: cyclo([hNle(7-SH)][dY](Me)I[dPip]); disulfide I:1-II:1)

- IC50 (mouse HDAC6; [3]): 44300 nM
- IC50 (human HDAC1; [3]): 2.37 nM
- EC50 [1, 4]: 596 nM
- IC50 (human HDAC4; [3]): 5.22 nM
Compound: CC[C@H](C)[C@@H]1NC(=O)[C@@H](Cc2ccc(OC)cc2)NC(=O)[C@H](CCCCCS)NC(=O)[C@@H]2CCCCN2C1=O [SCOP 149] (cyclo([Gly((CH2)5SH)][dY](Me)I[Pip]))

- IC50 (mouse HDAC6; [3]): 28500 nM
- IC50 (human HDAC1; [3]): 932 nM
- EC50 [1, 4]: > 100000 nM
- IC50 (human HDAC4; [3]): 7340 nM
Compound: CC[C@H](C)[C@@H]1NC(=O)[C@@H](Cc2ccc(OC)cc2)NC(=O)[C@H](CCCCS)NC(=O)[C@H]2CCCN2C1=O [SCOP 151]

- EC50 [1, 2]: 815 nM
- EC50 ([1]; Table 3, hybrid, without DTT): 1360 nM
Compound: cyclo(-L-Am7(S2Py)-D-Tyr(Me)-L-Ile-D-Pro-) [SCOP 401]

Reference: patent publication US7488712B2, “Histone deacetylase inhibitors and methods for producing the same” (Kyushu Institute of Technology, priority 2002, dated 2009)
